Results published in publication PMC10482691, “LTP induction by structural rather than enzymatic functions of CaMKII” (Nature, 2023).
Values joined by “and” are separate entries in the source; they are usually repeats but may differ in a detail not shown here. Identical values can stand only once.

Tests used:
MEK1(h) = MEK1(h) (Homo sapiens, UniProt Q02750); experiment: Kinase selectivity panel (residual activity at 1 μM); type: biochemical; conditions: inhibitor at 1 μM; read-out: residual kinase activity in % of maximal activity
PKG1β(h) = PKG1β(h) (Homo sapiens, UniProt Q13976); experiment: as above; type: biochemical; conditions: inhibitor at 1 μM; read-out: residual kinase activity in % of maximal activity
Arg(h) = Arg(h) (Homo sapiens, UniProt P42684); experiment: as above; type: biochemical; conditions: inhibitor at 1 μM; read-out: residual kinase activity in % of maximal activity
IGF-1R(h) = IGF-1R(h) (Homo sapiens, UniProt P08069); experiment: as above; type: biochemical; conditions: inhibitor at 1 μM; read-out: residual kinase activity in % of maximal activity
CaMKIIδ(h) = CaMKIIδ(h) (Homo sapiens, UniProt Q13557); experiment: as above; type: biochemical; conditions: inhibitor at 1 μM; read-out: residual kinase activity in % of maximal activity
CaMKIIβ(h) = CaMKIIβ(h) (Homo sapiens, UniProt Q13554); experiment: as above; type: biochemical; conditions: inhibitor at 1 μM; read-out: residual kinase activity in % of maximal activity
CDK2/cyclinE(h) = CDK2/cyclinE(h) (Homo sapiens, UniProt P24941); experiment: as above; type: biochemical; conditions: inhibitor at 1 μM
Pim-1(h) = Pim-1(h) (Homo sapiens, UniProt P11309); experiment: as above; type: biochemical; conditions: inhibitor at 1 μM; read-out: residual kinase activity in % of maximal activity
SAPK2a(h) = SAPK2a(h) (Homo sapiens, UniProt Q16539); experiment: as above; type: biochemical; conditions: inhibitor at 1 μM
CaMKI(h) = CaMKI(h) (Homo sapiens, UniProt Q14012); experiment: as above; type: biochemical; conditions: inhibitor at 1 μM; read-out: residual kinase activity in % of maximal activity
Pim-3(h) = Pim-3(h) (Homo sapiens, UniProt Q86V86); experiment: as above; type: biochemical; conditions: inhibitor at 1 μM; read-out: residual kinase activity in % of maximal activity
PKCδ(h) = PKCδ(h) (Homo sapiens, UniProt Q05655); experiment: as above; type: biochemical; conditions: inhibitor at 1 μM; read-out: residual kinase activity in % of maximal activity
PKBγ(h) = PKBγ(h) (Homo sapiens, UniProt Q9Y243); experiment: as above; type: biochemical; conditions: inhibitor at 1 μM; read-out: residual kinase activity in % of maximal activity
PKG1α(h) = PKG1α(h) (Homo sapiens, UniProt Q13976); experiment: as above; type: biochemical; conditions: inhibitor at 1 μM; read-out: residual kinase activity in % of maximal activity
JAK3(h) = JAK3(h) (Homo sapiens, UniProt P52333); experiment: as above; type: biochemical; conditions: inhibitor at 1 μM; read-out: residual kinase activity in % of maximal activity
[1] = target: PI3 Kinase (p110a/p85a)(h) (Homo sapiens, UniProt P42336); experiment: as above; type: biochemical; conditions: inhibitor at 1 μM; read-out: residual kinase activity in % of maximal activity
Aurora-C(h) = Aurora-C(h) (Homo sapiens, UniProt Q9UQB9); experiment: as above; type: biochemical; conditions: inhibitor at 1 μM; read-out: residual kinase activity in % of maximal activity
GSK3α(h) = GSK3α(h) (Homo sapiens, UniProt P49840); experiment: as above; type: biochemical; conditions: inhibitor at 1 μM; read-out: residual kinase activity in % of maximal activity
[2] = target: purified CaMKIIα binding to GST–GluN2B-c WT (Homo sapiens, UniProt Q9UQM7); experiment: CaMKII binding to immobilized GST–GluN2B-c in vitro
Description: CaMKII–GluN2B binding assays were done as described[9],[13],[25]. Briefly, GST–GluN2B-c tail (GST–2BC) was immobilized on anti-GST antibody-coated microtiter plates (Thermo Scientific), blocked for 30 min with 5% BSA and then overlaid with […] CaMKII (subunit concentration) in PIPES-buffered saline (pH 7.2) containing 2 mM Ca^2+, 1 μM CaM, 1 mM Mg^2+, 0.1% BSA and 0.1% Tween-20 for 20 min at room temperature. […] After extensive washes in buffer containing 1 mM EGTA, GST–2BC and bound CaMKII were eluted for 10 min in SDS loading buffer at 95 °C. Bound CaMKII was measured via immunoblot.

MAPK1(h) = MAPK1(h) (Homo sapiens, UniProt P27361); experiment: Kinase selectivity panel (residual activity at 1 μM); type: biochemical; conditions: inhibitor at 1 μM; read-out: residual kinase activity in % of maximal activity
PDGFRβ(h) = PDGFRβ(h) (Homo sapiens, UniProt P09619); experiment: as above; type: biochemical; conditions: inhibitor at 1 μM; read-out: residual kinase activity in % of maximal activity
GSK3β(h) = GSK3β(h) (Homo sapiens, UniProt P49841); experiment: as above; type: biochemical; conditions: inhibitor at 1 μM; read-out: residual kinase activity in % of maximal activity
SGK(h) = SGK(h) (Homo sapiens, UniProt O00141); experiment: as above; type: biochemical; conditions: inhibitor at 1 μM; read-out: residual kinase activity in % of maximal activity
JNK2α2(h) = JNK2α2(h) (Homo sapiens, UniProt P45984); experiment: as above; type: biochemical; conditions: inhibitor at 1 μM
ROCK-II(h) = ROCK-II(h) (Homo sapiens, UniProt O75116); experiment: as above; type: biochemical; conditions: inhibitor at 1 μM; read-out: residual kinase activity in % of maximal activity
CaMKIV(h) = CaMKIV(h) (Homo sapiens, UniProt Q16566); experiment: as above; type: biochemical; conditions: inhibitor at 1 μM; read-out: residual kinase activity in % of maximal activity
CDK5/p35(h) = CDK5/p35(h) (Homo sapiens, UniProt Q00535); experiment: as above; type: biochemical; conditions: inhibitor at 1 μM; read-out: residual kinase activity in % of maximal activity
p70S6K(h) = p70S6K(h) (Homo sapiens, UniProt P23443); experiment: as above; type: biochemical; conditions: inhibitor at 1 μM; read-out: residual kinase activity in % of maximal activity
JAK2(h) = JAK2(h) (Homo sapiens, UniProt O60674); experiment: as above; type: biochemical; conditions: inhibitor at 1 μM
Flt3(h) = Flt3(h) (Homo sapiens, UniProt P36888); experiment: as above; type: biochemical; conditions: inhibitor at 1 μM; read-out: residual kinase activity in % of maximal activity
PAK2(h) = PAK2(h) (Homo sapiens, UniProt Q13177); experiment: as above; type: biochemical; conditions: inhibitor at 1 μM; read-out: residual kinase activity in % of maximal activity
FAK(h) = FAK(h) (Homo sapiens, UniProt Q05397); experiment: as above; type: biochemical; conditions: inhibitor at 1 μM; read-out: residual kinase activity in % of maximal activity
CaMKIIγ(h) = CaMKIIγ(h) (Homo sapiens, UniProt Q13555); experiment: as above; type: biochemical; conditions: inhibitor at 1 μM; read-out: residual kinase activity in % of maximal activity
[3] = system: GFP–CaMKII in rat hippocampal neurons; experiment: cLTP-induced CaMKII synaptic enrichment in dissociated hippocampal cultures (GFP–CaMKII WT); type: cell-based; conditions: AS105
FGFR1(h) = FGFR1(h) (Homo sapiens, UniProt P11362); experiment: Kinase selectivity panel (residual activity at 1 μM); type: biochemical; conditions: inhibitor at 1 μM; read-out: residual kinase activity in % of maximal activity
mTOR(h) = mTOR(h) (Homo sapiens, UniProt P42345); experiment: as above; type: biochemical; conditions: inhibitor at 1 μM; read-out: residual kinase activity in % of maximal activity
KDR(h) = KDR(h) (Homo sapiens, UniProt P35968); experiment: as above; type: biochemical; conditions: inhibitor at 1 μM; read-out: residual kinase activity in % of maximal activity
MAPK2(h) = MAPK2(h) (Homo sapiens, UniProt P28482); experiment: as above; type: biochemical; conditions: inhibitor at 1 μM; read-out: residual kinase activity in % of maximal activity
cKit(h) = cKit(h) (Homo sapiens, UniProt P10721); experiment: as above; type: biochemical; conditions: inhibitor at 1 μM; read-out: residual kinase activity in % of maximal activity
PDK1(h) = PDK1(h) (Homo sapiens, UniProt O15530); experiment: as above; type: biochemical; conditions: inhibitor at 1 μM; read-out: residual kinase activity in % of maximal activity
PKCα(h) = PKCα(h) (Homo sapiens, UniProt P17252); experiment: as above; type: biochemical; conditions: inhibitor at 1 μM; read-out: residual kinase activity in % of maximal activity
Ret(h) = Ret(h) (Homo sapiens, UniProt P07949); experiment: as above; type: biochemical; conditions: inhibitor at 1 μM; read-out: residual kinase activity in % of maximal activity
AMPKα1(h) = AMPKα1(h) (Homo sapiens, UniProt Q13131); experiment: as above; type: biochemical; conditions: inhibitor at 1 μM; read-out: residual kinase activity in % of maximal activity

CaMKIIγ(h), sequence (Q13555 whole entry): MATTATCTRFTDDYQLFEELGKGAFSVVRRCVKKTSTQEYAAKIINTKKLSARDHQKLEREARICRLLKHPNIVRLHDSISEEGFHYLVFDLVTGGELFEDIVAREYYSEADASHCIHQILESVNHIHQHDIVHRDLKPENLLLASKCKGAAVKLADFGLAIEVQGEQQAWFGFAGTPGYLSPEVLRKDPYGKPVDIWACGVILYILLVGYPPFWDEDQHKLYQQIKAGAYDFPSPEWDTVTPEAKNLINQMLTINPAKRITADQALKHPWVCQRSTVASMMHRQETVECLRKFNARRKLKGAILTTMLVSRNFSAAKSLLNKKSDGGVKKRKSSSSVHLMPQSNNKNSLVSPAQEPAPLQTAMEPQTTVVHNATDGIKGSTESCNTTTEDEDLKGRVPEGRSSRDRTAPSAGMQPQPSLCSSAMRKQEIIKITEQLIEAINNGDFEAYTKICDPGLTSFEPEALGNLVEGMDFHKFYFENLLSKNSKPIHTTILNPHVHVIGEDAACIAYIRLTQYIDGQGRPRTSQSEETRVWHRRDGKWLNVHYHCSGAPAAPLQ
PDK1(h), sequence (O15530 whole entry): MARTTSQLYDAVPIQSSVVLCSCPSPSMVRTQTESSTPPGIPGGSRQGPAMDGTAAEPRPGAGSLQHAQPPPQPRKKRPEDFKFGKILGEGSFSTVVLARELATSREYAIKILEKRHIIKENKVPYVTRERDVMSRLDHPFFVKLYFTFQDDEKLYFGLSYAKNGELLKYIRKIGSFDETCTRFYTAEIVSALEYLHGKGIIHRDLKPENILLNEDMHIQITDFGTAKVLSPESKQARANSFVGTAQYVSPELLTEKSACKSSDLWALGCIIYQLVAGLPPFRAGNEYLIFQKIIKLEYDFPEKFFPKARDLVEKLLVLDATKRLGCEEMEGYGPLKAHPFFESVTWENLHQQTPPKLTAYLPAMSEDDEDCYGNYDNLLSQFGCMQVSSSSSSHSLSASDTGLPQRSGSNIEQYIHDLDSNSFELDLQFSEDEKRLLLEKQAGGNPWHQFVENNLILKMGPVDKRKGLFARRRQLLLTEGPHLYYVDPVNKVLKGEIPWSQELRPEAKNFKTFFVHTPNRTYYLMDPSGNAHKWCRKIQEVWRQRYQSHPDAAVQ
CaMKIIδ(h), sequence (Q13557 whole entry): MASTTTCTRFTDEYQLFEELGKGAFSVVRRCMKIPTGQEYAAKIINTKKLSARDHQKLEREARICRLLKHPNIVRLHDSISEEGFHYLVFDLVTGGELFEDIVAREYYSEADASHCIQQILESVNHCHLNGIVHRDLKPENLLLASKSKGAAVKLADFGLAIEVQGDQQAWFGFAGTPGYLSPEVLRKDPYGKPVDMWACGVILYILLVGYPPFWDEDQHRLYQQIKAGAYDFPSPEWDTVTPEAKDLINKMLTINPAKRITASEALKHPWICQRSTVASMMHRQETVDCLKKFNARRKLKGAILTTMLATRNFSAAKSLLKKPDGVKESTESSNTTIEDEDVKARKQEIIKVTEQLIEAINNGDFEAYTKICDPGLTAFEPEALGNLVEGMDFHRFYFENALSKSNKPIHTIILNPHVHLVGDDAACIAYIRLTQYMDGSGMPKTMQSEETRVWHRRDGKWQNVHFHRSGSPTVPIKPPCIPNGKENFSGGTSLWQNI
IGF-1R(h), sequence (P08069 31-1367): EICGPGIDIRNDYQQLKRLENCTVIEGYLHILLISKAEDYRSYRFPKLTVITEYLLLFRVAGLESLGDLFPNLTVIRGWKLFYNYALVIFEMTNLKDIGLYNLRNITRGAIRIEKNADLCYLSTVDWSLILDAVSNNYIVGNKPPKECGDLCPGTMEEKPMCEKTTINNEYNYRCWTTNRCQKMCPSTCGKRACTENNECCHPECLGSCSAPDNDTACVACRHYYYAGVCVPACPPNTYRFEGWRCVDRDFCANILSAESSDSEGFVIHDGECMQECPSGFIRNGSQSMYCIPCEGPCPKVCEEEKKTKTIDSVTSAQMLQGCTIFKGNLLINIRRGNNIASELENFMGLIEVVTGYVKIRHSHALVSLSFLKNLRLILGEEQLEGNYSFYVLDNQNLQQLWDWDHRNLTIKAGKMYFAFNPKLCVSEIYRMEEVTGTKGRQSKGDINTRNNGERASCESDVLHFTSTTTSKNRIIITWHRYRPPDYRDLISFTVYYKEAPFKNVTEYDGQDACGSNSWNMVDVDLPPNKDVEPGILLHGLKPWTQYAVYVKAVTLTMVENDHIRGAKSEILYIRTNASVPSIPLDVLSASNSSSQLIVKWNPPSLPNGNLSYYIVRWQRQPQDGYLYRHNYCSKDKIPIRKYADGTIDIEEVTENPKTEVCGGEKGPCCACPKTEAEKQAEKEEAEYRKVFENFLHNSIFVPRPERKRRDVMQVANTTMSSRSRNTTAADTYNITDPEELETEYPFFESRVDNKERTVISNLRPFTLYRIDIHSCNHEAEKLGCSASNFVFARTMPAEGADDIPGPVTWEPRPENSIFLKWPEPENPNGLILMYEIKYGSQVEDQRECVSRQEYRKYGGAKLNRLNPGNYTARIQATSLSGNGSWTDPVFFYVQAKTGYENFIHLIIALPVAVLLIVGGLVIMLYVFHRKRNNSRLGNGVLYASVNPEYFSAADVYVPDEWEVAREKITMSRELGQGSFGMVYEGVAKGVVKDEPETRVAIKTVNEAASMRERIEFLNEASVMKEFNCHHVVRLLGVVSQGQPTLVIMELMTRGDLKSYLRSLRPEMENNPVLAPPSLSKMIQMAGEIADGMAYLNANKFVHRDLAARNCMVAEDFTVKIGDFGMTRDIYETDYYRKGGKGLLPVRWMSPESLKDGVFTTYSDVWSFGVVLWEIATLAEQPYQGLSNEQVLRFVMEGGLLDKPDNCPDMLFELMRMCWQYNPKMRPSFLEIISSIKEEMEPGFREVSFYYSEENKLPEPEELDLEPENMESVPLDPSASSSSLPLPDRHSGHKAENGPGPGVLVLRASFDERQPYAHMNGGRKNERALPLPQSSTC
FAK(h), sequence (Q05397 whole entry): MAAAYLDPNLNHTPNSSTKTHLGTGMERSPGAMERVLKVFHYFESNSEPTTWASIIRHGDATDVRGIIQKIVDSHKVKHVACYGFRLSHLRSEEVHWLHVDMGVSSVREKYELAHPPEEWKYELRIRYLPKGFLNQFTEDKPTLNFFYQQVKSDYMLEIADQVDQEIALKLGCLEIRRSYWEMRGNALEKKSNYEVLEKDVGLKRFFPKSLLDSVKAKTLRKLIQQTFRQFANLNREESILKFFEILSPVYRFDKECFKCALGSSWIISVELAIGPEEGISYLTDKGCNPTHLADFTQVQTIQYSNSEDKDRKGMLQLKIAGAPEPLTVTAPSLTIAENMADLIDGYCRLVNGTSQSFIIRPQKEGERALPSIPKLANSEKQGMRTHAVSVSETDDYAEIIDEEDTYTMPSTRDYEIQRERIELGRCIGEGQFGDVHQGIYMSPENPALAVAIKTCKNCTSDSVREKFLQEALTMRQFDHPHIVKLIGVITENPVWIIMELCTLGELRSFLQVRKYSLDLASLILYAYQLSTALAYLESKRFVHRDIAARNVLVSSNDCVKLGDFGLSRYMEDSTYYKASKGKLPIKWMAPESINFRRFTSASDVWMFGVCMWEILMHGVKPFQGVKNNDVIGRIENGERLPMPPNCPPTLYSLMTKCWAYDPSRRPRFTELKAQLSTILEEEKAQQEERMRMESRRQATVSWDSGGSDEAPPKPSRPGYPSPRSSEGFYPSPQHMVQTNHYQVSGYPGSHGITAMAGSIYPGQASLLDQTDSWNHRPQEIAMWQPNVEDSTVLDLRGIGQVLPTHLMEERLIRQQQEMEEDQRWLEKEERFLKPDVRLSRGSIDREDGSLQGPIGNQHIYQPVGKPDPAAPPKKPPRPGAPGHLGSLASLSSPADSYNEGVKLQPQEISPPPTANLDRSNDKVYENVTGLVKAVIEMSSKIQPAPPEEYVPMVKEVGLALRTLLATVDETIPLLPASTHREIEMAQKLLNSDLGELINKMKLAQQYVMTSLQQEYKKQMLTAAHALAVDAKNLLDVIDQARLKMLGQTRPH
SGK(h), sequence (O00141 whole entry): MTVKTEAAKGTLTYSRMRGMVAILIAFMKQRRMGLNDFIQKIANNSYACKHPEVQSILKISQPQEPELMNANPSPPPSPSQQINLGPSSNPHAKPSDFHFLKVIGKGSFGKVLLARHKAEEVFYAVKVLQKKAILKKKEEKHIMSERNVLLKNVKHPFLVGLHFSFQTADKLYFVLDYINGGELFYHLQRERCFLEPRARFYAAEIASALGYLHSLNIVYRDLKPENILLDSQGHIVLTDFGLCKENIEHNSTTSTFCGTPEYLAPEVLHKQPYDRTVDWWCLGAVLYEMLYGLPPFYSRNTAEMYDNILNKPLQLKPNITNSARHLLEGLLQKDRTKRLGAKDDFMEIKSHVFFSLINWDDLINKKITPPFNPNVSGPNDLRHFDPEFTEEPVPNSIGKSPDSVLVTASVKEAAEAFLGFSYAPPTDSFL
MEK1(h), sequence (Q02750 whole entry): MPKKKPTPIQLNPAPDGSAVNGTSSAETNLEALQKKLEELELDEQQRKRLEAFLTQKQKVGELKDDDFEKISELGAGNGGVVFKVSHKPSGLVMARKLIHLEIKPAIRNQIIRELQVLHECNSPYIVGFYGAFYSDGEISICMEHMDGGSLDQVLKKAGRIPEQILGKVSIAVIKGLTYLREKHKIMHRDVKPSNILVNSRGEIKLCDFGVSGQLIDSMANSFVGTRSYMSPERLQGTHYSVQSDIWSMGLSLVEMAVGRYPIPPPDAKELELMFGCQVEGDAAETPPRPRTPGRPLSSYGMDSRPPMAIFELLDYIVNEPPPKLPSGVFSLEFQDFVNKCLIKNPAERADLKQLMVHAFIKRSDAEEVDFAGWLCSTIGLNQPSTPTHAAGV

NCCNc1cccc(-c2ccnc(Nc3cccc(Cl)c3)n2)c1 [AS105]
remaining activity at 1 µM (MEK1(h)): 111%
remaining activity at 1 µM (PKG1β(h)): 68%
remaining activity at 1 µM (Arg(h)): 87%
remaining activity at 1 µM (IGF-1R(h)): 121%
remaining activity at 1 µM (CaMKIIδ(h)): 2%
remaining activity at 1 µM (CaMKIIβ(h)): 6%
residual kinase activity in % of maximal activity (CDK2/cyclinE(h)): 2%
remaining activity at 1 µM (Pim-1(h)): 69%
residual kinase activity in % of maximal activity (SAPK2a(h)): 99%
remaining activity at 1 µM (CaMKI(h)): 83%
remaining activity at 1 µM (Pim-3(h)): 109%
remaining activity at 1 µM (PKCδ(h)): 73%
remaining activity at 1 µM (PKBγ(h)): 76%
remaining activity at 1 µM (PKG1α(h)): 61%
remaining activity at 1 µM (JAK3(h)): 89%
remaining activity at 1 µM [1]: 96%
remaining activity at 1 µM (Aurora-C(h)): 57%
remaining activity at 1 µM (GSK3α(h)): 6%
effect on GluN2B binding ([2]; AS105): without inhibiting
bound CaMKIIα (immunoblot, relative) ([2]; Ca2+/CaM, 10 μM AS105, no nucleotide): 2.79 and 2.715 and 1.563
remaining activity at 1 µM (MAPK1(h)): 105%
remaining activity at 1 µM (PDGFRβ(h)): 80%
remaining activity at 1 µM (GSK3β(h)): 11%
remaining activity at 1 µM (SGK(h)): 97%
residual kinase activity in % of maximal activity (JNK2α2(h)): 79%
remaining activity at 1 µM (ROCK-II(h)): 43%
remaining activity at 1 µM (CaMKIV(h)): 101%
remaining activity at 1 µM (CDK5/p35(h)): 1%
remaining activity at 1 µM (p70S6K(h)): 77%
residual kinase activity in % of maximal activity (JAK2(h)): 134%
remaining activity at 1 µM (Flt3(h)): 2%
remaining activity at 1 µM (PAK2(h)): 104%
remaining activity at 1 µM (FAK(h)): 75%
remaining activity at 1 µM (CaMKIIγ(h)): 2%
effect on stimulation-induced movement to excitatory synapses [3]: without inhibiting
remaining activity at 1 µM (FGFR1(h)): 91%
remaining activity at 1 µM (mTOR(h)): 102%
remaining activity at 1 µM (KDR(h)): 28%
remaining activity at 1 µM (MAPK2(h)): 106%
remaining activity at 1 µM (cKit(h)): 91%
remaining activity at 1 µM (PDK1(h)): 109%
remaining activity at 1 µM (PKCα(h)): 51%
remaining activity at 1 µM (Ret(h)): 55%
remaining activity at 1 µM (AMPKα1(h)): 38%
